Measured values taken from article PMC3629230, “Permeability Enhancers Dramatically Increase Zanamivir Absolute Bioavailability in Rats: Implications for an Orally Bioavailable Influenza Treatment” (PLoS ONE, 2013).
Several values for one entry are separate records, joined by “and”; a condition that tells them apart may be missing. Equal entries are not always repeated. Entries after “also recorded” stand apart in the source; their conditions may differ.

Legend:
[1] = Pharmacokinetics and absolute bioavailability after intraduodenal administration in rats; conditions: for Cmax / Tmax / AUC(0-t) / AUC(0-inf) / half-life / bioavailability: male, Sprague-Dawley, rat, plasma; for AUC(0-t): AUClast; for half-life: t1/2, intraduodenal; for bioavailability: other: intraduodenal, absolute, vs 1.5 mg intravenous
Description: Male Sprague-Dawley rats (Hilltop Labs, Scottdale, PA), 3 animals per treatment group, 250–350 grams in weight, were fitted with a jugular vein cannula (JVC). Animals intended for intraduodenal dosing were also fitted with one or more intraduodenal cannula (IDC) and those intended for intravenous dosing were fitted with a second JVC. Food was withheld from the animals for a minimum of twelve hours prior to test article administration and was returned approximately four hours post-dose. Water was supplied ad libitum.
Intraduodenal doses composed of 1.5 mg of zanamivir and varying amounts of an enhancer (glycerol or Capmul MCM L8) were injected directly into the duodenum via the IDC. To determine absolute bioavailability of the intraduodenal administered drug, intravenous dosing was conducted by the injection of 1.5 mg of zanamivir in 200 µL of PBS through a JVC. For some experiments, the absorption enhancer was administered intraduodenally 2 hr prior to administering 1.5 mg of zanamivir in PBS through a second IDC. Each intraduodenal dose was followed with the introduction of a small air bubble (∼10 µL) in the cannula followed by a flush of 125 µL of PBS to ensure the dose was given in full. The volume of PBS used for cannula flush was consistent across the treatment groups. The cannula was tied to prevent the PBS remaining in the cannula from entering the duodenum.
Blood samples collected via the JVC, approximately 400 µL each, were obtained at 2 min, 5 min, 15 min, 30 min, 60 min, 90 min, and 120 min, with sodium heparin used as an anti-coagulant. Each sample was placed into a chilled tube containing the anticoagulant and kept on ice until centrifugation at 4°C, 3,000× g, for 5 min. The plasma supernatants were stored at −70°C until LC-MS analysis.
Dosing solution samples were assayed by liquid chromatography-mass spectrometry (LC-MS/MS) using electrospray ionization. The chromatographic system consisted of Perkin Elmer series 200 micropumps and autosampler equipped with a Waters Atlantic® HILIC Silica […], 2.1×50 mm column. The mass spectrometer was a PE Sciex API 4000 with electrospray interface in multiple reaction monitoring mode. […] Stock solutions (1 mg/mL zanamivir) were prepared in water. Standards (eight concentrations) were prepared in the appropriate matched matrix (HBSSg or Sprague-Dawley rat plasma containing sodium heparin) and diluted 50-fold with methanol. Experimental samples were identically treated.

[2] = cited from earlier work
Caco-2 cell monolayers = experiment: Unidirectional (A-to-B) permeability of zanamivir across Caco-2 cell monolayers with and without excipients; assay type: in vitro ADME; conditions: A-to-B, zanamivir 15 µg/mL
Method: Caco-2 cells were obtained from American Type Culture Collection (Rockville, MD). Stock cultures were maintained in flasks with DMEM medium supplemented with 10% FBS, 1% non-essential amino acids, 1 mmol/L sodium pyruvate, 100 IU/mL penicillin, and 100 µg/mL streptomycin in a humidified incubator (37°C, 5% CO2). Cells were harvested by trypsinization and seeded at 60,000 cells/cm^2 onto Costar Transwell® 12-well dual-chamber plates with collagen-coated, microporous polycarbonate membranes (1.13 cm^2 insert area, 0.4 µm pore size; Corning Life Sciences, Acton, MA) for permeability studies. The culture medium was changed three times per week.
Caco-2 cell monolayers that had grown for at least 20 days were subjected to batch quality control testing in which permeation rates were measured for atenolol, digoxin, estrone-3-sulfate, lucifer yellow (LY), and propranolol. In addition, the transepithelial electrical resistance (TEER) across each experimental monolayer was tested prior to an experiment.
Unidirectional (A-to-B) permeability of zanamivir was determined at 15 µg/mL in the absence and presence of varying concentrations of excipients in Caco-2 cell monolayers. The assay buffer was Hanks' balanced salt solution (HBSS) supplemented with 10 mM 4-(2-hydroxyethyl)-1-piperazineethanesulfonic acid (HEPES) and 15 mM D-glucose (HBSSg), pH 7.4. The dosing solutions on the apical side (0.5 mL) contained either zanamivir and excipients at each concentration being tested or zanamivir only (n = 4), while the receiver buffer in the bottom well (1.5 mL) was always excipient-free. The Caco-2 cell monolayers were incubated for 120 min in a humidified incubator (37°C, 5% CO2) after dosing in the apical chambers. Aliquots (200 µL each) of receiver buffer were sampled at 60 min, 90 min, and 120 min after dosing, with replacement by the same volume of blank buffer (at 60 min and 90 min). Donors were sampled at 0 and 120 min.
Experimental samples were identically treated.

[3] = intraduodenal, 1.5 mg/animal in PBS, Capmul MCM L8 given 2 hr prior
[4] = intraduodenal, 1.5 mg/animal in PBS, glycerol given 2 hr prior
[5] = intraduodenal, 1.5 mg/animal, 50 µL vehicle Capmul MCM L8
[6] = intraduodenal, 1.5 mg/animal, 50 µL vehicle PBS
[7] = intraduodenal, 1.5 mg/animal, 50 µL vehicle glycerol
[8] = 0.75 mg, Figure 5 experiment, intraduodenal, 0.75 mg zanamivir, 50 µL Capmul MCM L8
[9] = 1.5 mg, intraduodenal, 1.5 mg/animal in PBS, Capmul MCM L8 given 2 hr prior
[10] = 1.5 mg, intraduodenal, 1.5 mg/animal in PBS, glycerol given 2 hr prior
[11] = 1.5 mg, intraduodenal, 1.5 mg/animal, 50 µL vehicle Capmul MCM L8
[12] = 1.5 mg, intraduodenal, 1.5 mg/animal, 50 µL vehicle PBS
[13] = 1.5 mg, intraduodenal, 1.5 mg/animal, 50 µL vehicle glycerol
[14] = 1.5 mg, Figure 5 experiment, intraduodenal, 1.5 mg zanamivir, 50 µL Capmul MCM L8
[15] = 3 mg, Figure 5 experiment, intraduodenal, 3.0 mg zanamivir, 50 µL Capmul MCM L8

Q: With `CC(=O)N[C@H]1[C@H]([C@H](O)[C@H](O)CO)OC(C(=O)O)=C[C@@H]1N=C(N)N` [Zanamivir, zanamivir] as the molecule, how does the “Absolute bioavailability relative to negative control” value ([1]; both enhancers (glycerol, Capmul MCM L8) given 2 hr prior to zanamivir) read?
A: equivalent to that of the negative control

Q: What about the Absorption enhancement ([1]; enhancer (glycerol or Capmul MCM L8) given intraduodenally 2 hr prior to 1.5 mg zanamivir in PBS) of the same molecule?
A: No absorption enhancement; also recorded: no enhanced absorption

Q: What about the “Increase of absolute bioavailability compared to PBS” value ([1]; intraduodenal, 1.5 mg zanamivir in 50 µL glycerol) of the same molecule?
A: 4.7 fold

Q: What about the “Dose-normalized AUClast” value [1, 3] of the same molecule?
A: 12.7 kg·ng·h/mL/mg

Q: What about the “Dose-normalized AUC∞” value [1, 3] of the same molecule?
A: 13 kg·ng·h/mL/mg

Q: And the “Dose-normalized AUClast” value [1, 4]?
A: 21.1 kg·ng·h/mL/mg

Q: What about the “Dose-normalized AUC∞” value [1, 4] of the same molecule?
A: 29.1 kg·ng·h/mL/mg

Q: What about the “Dose-normalized AUClast” value [1, 5] of the same molecule?
A: 715 kg·ng·h/mL/mg

Q: And the “Dose-normalized AUC∞” value [1, 5]?
A: 753 kg·ng·h/mL/mg

Q: What about the “Dose-normalized AUClast” value [1, 6] of the same molecule?
A: 30.6 kg·ng·h/mL/mg

Q: And the “Dose-normalized AUC∞” value [1, 6]?
A: 46.6 kg·ng·h/mL/mg

Q: And the “Dose-normalized AUClast” value [1, 7]?
A: 145 kg·ng·h/mL/mg

Q: What about the “Dose-normalized AUC∞” value [1, 7] of the same molecule?
A: 153 kg·ng·h/mL/mg

Q: What about the Cmax [1, 8] of the same molecule?
A: 1.43 µg/mL

Q: What about the Tmax [1, 8] of the same molecule?
A: 4.8 min

Q: What about the AUC(0-t) [1, 9] of the same molecule?
A: 0.0661 µg·h/mL

Q: And the AUC(0-t) [1, 10]?
A: 0.112 µg·h/mL

Q: What about the AUC(0-t) [1, 11] of the same molecule?
A: 3.8 µg·h/mL

Q: What about the AUC(0-t) [1, 12] of the same molecule?
A: 0.162 µg·h/mL

Q: And the AUC(0-t) [1, 13]?
A: 0.754 µg·h/mL

Q: And the AUC(0-inf) [1, 9]?
A: 0.0698 µg·h/mL

Q: And the AUC(0-inf) [1, 10]?
A: 0.156 µg·h/mL

Q: What about the AUC(0-inf) [1, 11] of the same molecule?
A: 4 µg·h/mL

Q: And the AUC(0-inf) [1, 12]?
A: 0.244 µg·h/mL

Q: What about the AUC(0-inf) [1, 13] of the same molecule?
A: 0.781 µg·h/mL

Q: And the Cmax ([1]; 1.5 mg, Figure 4 experiment, intraduodenal, 1.5 mg zanamivir, 25 µL Capmul MCM L8)?
A: 1.65 µg/mL

Q: What about the Cmax ([1]; 1.5 mg, Figure 4 experiment, intraduodenal, 1.5 mg zanamivir, 50 µL Capmul MCM L8) of the same molecule?
A: 2.12 µg/mL

Q: And the Cmax ([1]; 1.5 mg, Figure 4 experiment, intraduodenal, 1.5 mg zanamivir, 75 µL Capmul MCM L8)?
A: 2.57 µg/mL

Q: And the Cmax [1, 14]?
A: 3.92 µg/mL

Q: What about the Cmax [1, 9] of the same molecule?
A: 0.0486 µg/mL

Q: What about the Cmax [1, 10] of the same molecule?
A: 0.0774 µg/mL

Q: And the Cmax [1, 11]?
A: 7.23 µg/mL

Q: What about the Cmax [1, 12] of the same molecule?
A: 0.134 µg/mL

Q: What about the Cmax [1, 13] of the same molecule?
A: 0.948 µg/mL

Q: What about the half-life ([1]; 1.5 mg, 1.5 mg/animal in PBS, Capmul MCM L8 given 2 hr prior) of the same molecule?
A: 51.6 min

Q: What about the half-life ([1]; 1.5 mg, 1.5 mg/animal in PBS, glycerol given 2 hr prior) of the same molecule?
A: 74.4 min

Q: What about the half-life ([1]; 1.5 mg, 1.5 mg/animal, 50 µL vehicle Capmul MCM L8) of the same molecule?
A: 29.4 min

Q: What about the half-life ([1]; 1.5 mg, 1.5 mg/animal, 50 µL vehicle PBS) of the same molecule?
A: 49.8 min

Q: What about the half-life ([1]; 1.5 mg, 1.5 mg/animal, 50 µL vehicle glycerol) of the same molecule?
A: 17.4 min

Q: What about the Tmax [1, 14] of the same molecule?
A: 4.8 min

Q: What about the Tmax ([1]; 1.5 mg, intraduodenal, 1.5 mg zanamivir mixed with Capmul MCM L8) of the same molecule?
A: 5 min

Q: What about the Tmax [1, 9] of the same molecule?
A: 60 min

Q: What about the Tmax [1, 10] of the same molecule?
A: 34.8 min

Q: What about the Tmax [1, 11] of the same molecule?
A: 4.8 min

Q: And the Tmax [1, 12]?
A: 30 min

Q: What about the Tmax [1, 13] of the same molecule?
A: 30 min

Q: And the Cmax ([1]; 1.5 mg/animal, intraduodenal, 50 µL vehicle Capmul MCM L8)?
A: > 7.2 µg/mL

Q: What about the Cmax [1, 15] of the same molecule?
A: 7 µg/mL

Q: What about the Tmax [1, 15] of the same molecule?
A: 8.4 min

Q: What about the bioavailability [1, 9] of the same molecule?
A: 0.66%

Q: What about the bioavailability [1, 10] of the same molecule?
A: 1.1%

Q: And the bioavailability [1, 11]?
A: 37.7%

Q: And the bioavailability [1, 12]?
A: 1.59%

Q: And the bioavailability [1, 13]?
A: 7.53%

Q: What about the Oral bioavailability [2] of the same molecule?
A: under 2%

Q: And the “Increase in apparent permeability coefficient (Papp) compared to no-enhancer control” value (Caco-2 cell monolayers; 0.25% Capmul MCM L8, pH 7.4)?
A: > 5 fold and 5.2 fold

Q: What about the “Increase in apparent permeability coefficient (Papp) compared to no-enhancer control” value (Caco-2 cell monolayers; 5% glycerol, pH 7.4) of the same molecule?
A: > 5 fold and 5.6 fold
